Assay results reported in patent US12274680B2, “Treatment of benign prostatic hypertrophy with capsinoids” (priority 2022, dated 2025).

Legend:
BPH = details: longer term studies; cited from earlier work
[1] = test system: bladder outlet obstruction (BOO) due to benign prostatic hypertrophy (BPH); assay: Case observation of one patient with BOO due to BPH (self-catheterization frequency, urine flow, PSA, prostate size); type: in vivo
Description: A patient suffering from BOO due to BPH was experiencing increasing symptoms of BOO from 2018 to 2022 in addition to increasing levels of prostate specific antigen (PSA). This patient preferred the occasional self-catheterization to surgical treatment of the BPH. From 2018 to 2021 the self-catheterization frequency associated with 8 mg of silodosin (an alpha-1 antagonist/blocker) orally daily was about once every 6 months. […] By January 2022, the self-catheterization was weekly. The patient commented that most of the times self-catheterization was necessary, followed a decreased intake of spicy foods, which were an almost daily ingestion for this patient. The patient was instructed to ingest 40,000 SHU (Scoville Heat Units) daily in the form of a cayenne nutraceutical capsule obtained over the counter (OTC) at a pharmacy. The cayenne capsule is a powder of ground chili pepper with a claimed total capsinoid activity of 40,000 SHU resulting from the mixture of capsinoid chemicals in the pepper. […] These clinical findings are consistent with the dramatic improvement in BOO following treatment with oral capsinoids.

| Compound | urinary flow rates and subjective symptom scores (BPH) | adverse event ([1]; silodosin 8 mg orally daily, led to dose decrease to 4 mg) | self-catheterization frequency ([1]; silodosin dose decreased to 4 mg, by January 2022) |
| --- | --- | --- | --- |
| COc1cc2nc(N3CCN(C(=O)C4COc5ccccc5O4)CC3)nc(N)c2cc1OC (stereo not drawn) [doxazosin] | significant improvements | – | – |
| O=C(NC1CCN(CCc2c[nH]c3ccccc23)CC1)c1ccccc1 [indoramin] | significant improvements | – | – |
| COc1cc2nc(N3CCN(C(=O)c4ccco4)CC3)nc(N)c2cc1OC [prazosin] | significant improvements | – | – |
| C[C@H](Cc1cc2c(c(C(N)=O)c1)N(CCCO)CC2)NCCOc1ccccc1OCC(F)(F)F [silodosin] | – | severe cardiovascular adverse event | weekly |
| COc1cc2nc(N3CCN(C(=O)C4CCCO4)CC3)nc(N)c2cc1OC (stereo not drawn) [terazosin] | significant improvements | – | – |
